Results taken from the kinase profiling compilation of Christmann-Franck et al. (2016).

How the values were obtained:
Details in all cases: compound 10.0 µM
PRKD2 (human) = PRKD2 (human) (UniProt Q9BZL6)
BLK (human) = BLK (human) (UniProt P51451)
MAP3K8 (human) = MAP3K8 (human) (UniProt P41279)
NTRK3 (human) = NTRK3 (human) (UniProt Q16288)
EPHB4 (human) = EPHB4 (human) (UniProt P54760)
CAMK1D (human) = CAMK1D (human) (UniProt Q8IU85)
STK17A (human) = STK17A (human) (UniProt Q9UEE5)
RIPK2 (human) = RIPK2 (human) (UniProt O43353)
MAP4K4 (human) = MAP4K4 (human) (UniProt O95819)
CSNK1G1 (human) = CSNK1G1 (human) (UniProt Q9HCP0)
GSK3A (human) = GSK3A (human) (UniProt P49840)
CDK6 CCND1 (human) = CDK6 CCND1 (human) (UniProt Q00534+P24385)
PDGFRA (human) = PDGFRA (human) (UniProt P16234)
PRKACA (human) = PRKACA (human) (UniProt P17612)
CHEK2 (human) = CHEK2 (human) (UniProt O96017)
TSSK2 (human) = TSSK2 (human) (UniProt Q96PF2)
DYRK1A (human) = DYRK1A (human) (UniProt Q13627)
CDK5 CDK5R1 p25 (human) = CDK5 CDK5R1 p25 (human) (UniProt Q15078+Q00535)
SGK1 (human) = SGK1 (human) (UniProt O00141)
SGK1 (human), sequence (O00141 whole entry, looked up): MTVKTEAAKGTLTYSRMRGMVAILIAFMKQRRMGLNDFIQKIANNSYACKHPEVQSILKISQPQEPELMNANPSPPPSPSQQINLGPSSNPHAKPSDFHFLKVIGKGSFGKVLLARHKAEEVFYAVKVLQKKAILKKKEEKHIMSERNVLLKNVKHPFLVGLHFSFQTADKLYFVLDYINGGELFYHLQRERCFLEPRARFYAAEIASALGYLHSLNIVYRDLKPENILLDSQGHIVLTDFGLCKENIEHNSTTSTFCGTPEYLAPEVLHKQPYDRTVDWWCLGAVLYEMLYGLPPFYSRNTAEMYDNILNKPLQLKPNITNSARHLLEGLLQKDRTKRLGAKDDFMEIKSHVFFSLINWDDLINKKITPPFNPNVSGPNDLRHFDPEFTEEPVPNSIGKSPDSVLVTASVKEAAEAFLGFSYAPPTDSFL

MAPK8 (human) = MAPK8 (human) (UniProt P45983)
MAPK1 (human) = MAPK1 (human) (UniProt P28482)
PBK (human) = PBK (human) (UniProt Q96KB5)
PBK (human), sequence (Q96KB5 whole entry, looked up): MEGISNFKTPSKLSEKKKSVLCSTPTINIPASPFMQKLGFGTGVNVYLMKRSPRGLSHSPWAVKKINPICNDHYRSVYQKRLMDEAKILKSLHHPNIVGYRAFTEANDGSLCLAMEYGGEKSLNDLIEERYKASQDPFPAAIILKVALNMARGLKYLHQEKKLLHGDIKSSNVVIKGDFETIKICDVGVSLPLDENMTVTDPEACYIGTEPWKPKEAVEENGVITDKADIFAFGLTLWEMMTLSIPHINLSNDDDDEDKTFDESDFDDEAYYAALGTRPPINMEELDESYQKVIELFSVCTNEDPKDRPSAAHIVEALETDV

FLT4 (human) = FLT4 (human) (UniProt P35916)
DSTYK (human) = DSTYK (human) (UniProt Q6XUX3)
DSTYK (human), sequence (Q6XUX3 whole entry, looked up): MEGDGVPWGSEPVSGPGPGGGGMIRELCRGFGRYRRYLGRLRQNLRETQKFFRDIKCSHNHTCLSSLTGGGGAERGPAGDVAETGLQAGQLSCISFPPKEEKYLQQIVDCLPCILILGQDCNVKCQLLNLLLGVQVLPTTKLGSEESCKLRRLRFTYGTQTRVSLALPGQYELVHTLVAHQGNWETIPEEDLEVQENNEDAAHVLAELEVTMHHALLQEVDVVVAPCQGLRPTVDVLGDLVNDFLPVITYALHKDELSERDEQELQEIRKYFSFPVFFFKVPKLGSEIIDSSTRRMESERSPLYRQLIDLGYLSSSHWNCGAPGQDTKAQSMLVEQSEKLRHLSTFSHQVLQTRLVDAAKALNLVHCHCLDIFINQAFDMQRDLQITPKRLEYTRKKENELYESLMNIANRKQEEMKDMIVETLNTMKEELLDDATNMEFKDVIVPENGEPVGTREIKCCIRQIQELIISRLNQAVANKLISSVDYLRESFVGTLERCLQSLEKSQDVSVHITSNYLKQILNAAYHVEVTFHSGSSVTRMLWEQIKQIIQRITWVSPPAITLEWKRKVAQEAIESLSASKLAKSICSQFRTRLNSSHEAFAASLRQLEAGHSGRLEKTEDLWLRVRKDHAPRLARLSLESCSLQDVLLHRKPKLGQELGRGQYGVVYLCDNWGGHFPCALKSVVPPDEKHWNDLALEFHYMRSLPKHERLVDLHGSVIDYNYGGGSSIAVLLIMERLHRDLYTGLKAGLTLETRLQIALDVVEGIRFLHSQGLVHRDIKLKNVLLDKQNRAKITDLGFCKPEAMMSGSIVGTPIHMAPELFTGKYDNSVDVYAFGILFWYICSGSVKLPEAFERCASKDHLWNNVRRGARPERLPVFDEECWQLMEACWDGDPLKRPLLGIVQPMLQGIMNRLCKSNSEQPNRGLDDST

AKT1 (human) = AKT1 (human) (UniProt P31749)
ADRBK2 (human) = ADRBK2 (human) (UniProt P35626)
ERBB2 (human) = ERBB2 (human) (UniProt P04626)
RPS6KA6 KD1 KD2 (human) = RPS6KA6 KD1 KD2 (human) (UniProt Q9UK32)
STK3 (human) = STK3 (human) (UniProt Q13188)
CHUK (human) = CHUK (human) (UniProt O15111)
MATK (human) = MATK (human) (UniProt P42679)
MATK (human), sequence (P42679 whole entry, looked up): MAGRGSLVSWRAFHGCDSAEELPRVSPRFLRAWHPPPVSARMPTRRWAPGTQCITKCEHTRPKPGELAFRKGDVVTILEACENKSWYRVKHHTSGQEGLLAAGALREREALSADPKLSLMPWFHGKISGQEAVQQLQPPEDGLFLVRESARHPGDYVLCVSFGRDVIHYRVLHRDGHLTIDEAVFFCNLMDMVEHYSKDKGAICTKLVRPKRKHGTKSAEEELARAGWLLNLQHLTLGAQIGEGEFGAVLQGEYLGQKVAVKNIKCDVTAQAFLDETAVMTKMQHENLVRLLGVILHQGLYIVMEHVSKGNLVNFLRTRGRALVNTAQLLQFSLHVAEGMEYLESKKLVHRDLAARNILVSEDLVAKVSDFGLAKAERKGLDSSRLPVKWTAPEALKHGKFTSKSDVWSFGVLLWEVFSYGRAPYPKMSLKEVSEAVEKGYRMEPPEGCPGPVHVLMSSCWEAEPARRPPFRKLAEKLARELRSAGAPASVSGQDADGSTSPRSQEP

FGFR2 (human) = FGFR2 (human) (UniProt P21802)
FGFR2 (human), sequence (P21802 whole entry, looked up): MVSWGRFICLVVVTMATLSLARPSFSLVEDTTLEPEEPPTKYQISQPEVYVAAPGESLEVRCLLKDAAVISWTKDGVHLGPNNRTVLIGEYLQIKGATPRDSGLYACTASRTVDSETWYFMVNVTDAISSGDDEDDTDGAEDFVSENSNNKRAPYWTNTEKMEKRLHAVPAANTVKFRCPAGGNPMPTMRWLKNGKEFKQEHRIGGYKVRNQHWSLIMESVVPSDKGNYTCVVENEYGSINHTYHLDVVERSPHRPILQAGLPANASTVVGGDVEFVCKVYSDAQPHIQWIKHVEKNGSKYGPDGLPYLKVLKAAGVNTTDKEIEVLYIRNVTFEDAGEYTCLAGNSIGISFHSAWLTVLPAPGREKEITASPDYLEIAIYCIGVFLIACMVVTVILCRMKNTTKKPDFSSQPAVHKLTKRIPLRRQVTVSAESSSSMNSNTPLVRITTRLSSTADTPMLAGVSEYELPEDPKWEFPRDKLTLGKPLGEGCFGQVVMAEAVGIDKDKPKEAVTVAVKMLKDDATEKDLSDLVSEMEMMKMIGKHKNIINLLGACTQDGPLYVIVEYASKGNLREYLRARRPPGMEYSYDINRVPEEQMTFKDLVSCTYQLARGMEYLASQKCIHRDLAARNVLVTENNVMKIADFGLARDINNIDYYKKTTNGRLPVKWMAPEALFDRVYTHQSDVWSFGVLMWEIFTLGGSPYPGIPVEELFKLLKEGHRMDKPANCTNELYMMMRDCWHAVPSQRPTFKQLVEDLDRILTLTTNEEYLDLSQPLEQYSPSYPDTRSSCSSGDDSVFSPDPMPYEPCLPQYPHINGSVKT

NTRK2 (human) = NTRK2 (human) (UniProt Q16620)
MAPKAPK2 (human) = MAPKAPK2 (human) (UniProt P49137)
VRK1 (human) = VRK1 (human) (UniProt Q99986)
VRK1 (human), sequence (Q99986 whole entry, looked up): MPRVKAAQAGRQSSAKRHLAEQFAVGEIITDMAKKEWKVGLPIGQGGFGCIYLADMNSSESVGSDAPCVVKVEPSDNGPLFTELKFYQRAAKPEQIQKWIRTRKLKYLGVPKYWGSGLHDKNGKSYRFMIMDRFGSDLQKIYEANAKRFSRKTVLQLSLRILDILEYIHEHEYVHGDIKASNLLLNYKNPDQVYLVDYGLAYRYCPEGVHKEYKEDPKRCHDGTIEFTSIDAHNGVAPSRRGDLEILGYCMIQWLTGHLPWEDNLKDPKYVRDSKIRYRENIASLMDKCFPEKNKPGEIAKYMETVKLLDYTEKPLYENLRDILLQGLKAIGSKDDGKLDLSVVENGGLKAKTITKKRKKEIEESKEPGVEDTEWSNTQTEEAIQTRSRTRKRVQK

CAMK2B (human) = CAMK2B (human) (UniProt Q13554)
PNCK (human) = PNCK (human) (UniProt Q6P2M8)
GRK7 (human) = GRK7 (human) (UniProt Q8WTQ7)
WNK3 (human) = WNK3 (human) (UniProt Q9BYP7)
IKBKB (human) = IKBKB (human) (UniProt O14920)
FLT3 (human) = FLT3 (human) (UniProt P36888)
PIM2 (human) = PIM2 (human) (UniProt Q9P1W9)
MET (human) = MET (human) (UniProt P08581)
MET (human), sequence (P08581 whole entry, looked up): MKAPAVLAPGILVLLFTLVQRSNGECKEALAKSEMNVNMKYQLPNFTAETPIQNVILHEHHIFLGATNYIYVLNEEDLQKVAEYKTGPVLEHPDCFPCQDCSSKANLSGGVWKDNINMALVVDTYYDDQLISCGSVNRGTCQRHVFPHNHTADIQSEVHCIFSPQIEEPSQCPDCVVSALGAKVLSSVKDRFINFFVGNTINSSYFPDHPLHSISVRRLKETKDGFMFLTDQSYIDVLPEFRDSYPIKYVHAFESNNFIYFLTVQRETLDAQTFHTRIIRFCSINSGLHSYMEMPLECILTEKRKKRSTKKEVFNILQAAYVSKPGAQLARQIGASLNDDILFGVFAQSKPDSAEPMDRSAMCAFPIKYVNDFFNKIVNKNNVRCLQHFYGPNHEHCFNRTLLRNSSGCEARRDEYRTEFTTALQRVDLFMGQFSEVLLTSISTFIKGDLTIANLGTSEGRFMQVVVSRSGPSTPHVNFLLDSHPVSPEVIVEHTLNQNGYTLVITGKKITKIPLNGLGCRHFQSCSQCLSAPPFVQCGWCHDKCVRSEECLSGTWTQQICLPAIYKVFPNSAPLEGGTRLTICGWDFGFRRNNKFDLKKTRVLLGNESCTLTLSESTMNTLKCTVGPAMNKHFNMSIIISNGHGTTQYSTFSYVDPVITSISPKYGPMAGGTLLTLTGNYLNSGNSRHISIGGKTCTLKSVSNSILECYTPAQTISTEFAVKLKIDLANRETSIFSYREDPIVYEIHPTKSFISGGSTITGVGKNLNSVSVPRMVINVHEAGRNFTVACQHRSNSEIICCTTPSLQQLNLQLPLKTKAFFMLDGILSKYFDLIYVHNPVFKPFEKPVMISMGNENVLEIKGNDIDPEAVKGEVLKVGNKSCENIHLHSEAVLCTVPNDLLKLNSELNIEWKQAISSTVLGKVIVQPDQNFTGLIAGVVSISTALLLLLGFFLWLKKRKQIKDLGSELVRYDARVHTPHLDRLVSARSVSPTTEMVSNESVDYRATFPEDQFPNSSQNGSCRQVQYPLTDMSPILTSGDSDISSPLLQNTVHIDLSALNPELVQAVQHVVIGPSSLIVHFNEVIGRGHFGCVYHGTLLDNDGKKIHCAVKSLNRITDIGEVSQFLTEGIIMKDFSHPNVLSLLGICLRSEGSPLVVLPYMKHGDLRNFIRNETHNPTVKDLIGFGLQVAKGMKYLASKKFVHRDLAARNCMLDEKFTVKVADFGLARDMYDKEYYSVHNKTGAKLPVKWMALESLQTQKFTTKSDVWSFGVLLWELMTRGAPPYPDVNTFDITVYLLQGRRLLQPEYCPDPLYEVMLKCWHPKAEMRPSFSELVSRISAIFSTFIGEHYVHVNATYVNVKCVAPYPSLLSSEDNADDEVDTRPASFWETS

PHKG1 (human) = PHKG1 (human) (UniProt Q16816)

In the case of CC[C@H](C)n1cc(C)c2c(C(=O)NCc3c(C)cc(C)[nH]c3=O)cc(-c3ccc(N4CCNCC4)nc3)cc21, the residual activity (PRKD2 (human)) is reported as 98%, the residual activity (BLK (human)) is reported as 81.5% and the residual activity (MAP3K8 (human)) is reported as 95.5%. For the same molecule, the residual activity (NTRK3 (human)) was 102%, the residual activity (EPHB4 (human)) was 95% and the residual activity (CAMK1D (human)) was 82%. The residual activity (STK17A (human)) was 96.5%, the residual activity (RIPK2 (human)) was 95.5% and the residual activity (MAP4K4 (human)) was 102%. It also gave a residual activity (CSNK1G1 (human)) of 110%, a residual activity (GSK3A (human)) of 102% and a residual activity (CDK6 CCND1 (human)) of 106%. The residual activity (PDGFRA (human)) was 99.5%, the residual activity (PRKACA (human)) was 102% and the residual activity (CHEK2 (human)) was 71%. The residual activity (TSSK2 (human)) was 93.5%, the residual activity (DYRK1A (human)) was 95% and the residual activity (CDK5 CDK5R1 p25 (human)) was 97.5%. It also gave a residual activity (SGK1 (human)) of 99%, a residual activity (MAPK8 (human)) of 99.5% and a residual activity (MAPK1 (human)) of 95%. For the same molecule, the residual activity (PBK (human)) was 94%, the residual activity (FLT4 (human)) was 82.5% and the residual activity (DSTYK (human)) was 97.5%. For the same molecule, the residual activity (AKT1 (human)) was 91%, the residual activity (ADRBK2 (human)) was 105% and the residual activity (ERBB2 (human)) was 100%. The residual activity (RPS6KA6 KD1 KD2 (human)) was 92%, the residual activity (STK3 (human)) was 90% and the residual activity (CHUK (human)) was 93%. For the same molecule, the residual activity (MATK (human)) was 95.5%, the residual activity (FGFR2 (human)) was 98.5% and the residual activity (NTRK2 (human)) was 99%. For the same molecule, the residual activity (MAPKAPK2 (human)) was 99%, the residual activity (VRK1 (human)) was 101% and the residual activity (CAMK2B (human)) was 95.5%. It also gave a residual activity (PNCK (human)) of 88%, a residual activity (GRK7 (human)) of 97.5% and a residual activity (WNK3 (human)) of 95%. It also gave a residual activity (IKBKB (human)) of 102%, a residual activity (FLT3 (human)) of 87.5% and a residual activity (PIM2 (human)) of 99%. For the same molecule, the residual activity (MET (human)) was 128% and the residual activity (PHKG1 (human)) was 98%.
